Entries after “also recorded” stand apart in the source; their conditions may differ. Where two headings read alike, the source gives them in different places.
Tested on: Jurkat cells
Test: Cell viability / toxicity in Jurkat cells
Assay type: cell-based, human
Conditions: for IC50: Homo sapiens, read-out: IC50 to Jurkat cells; for cell toxicity in leukemia (Jurkat) cancer cell line: 36-hour treatment; for toxicity to Jurkat cells: pM-nM concentration range (0.23 pM to 1 uM), 12 hr
Text: FIG. 1. Portimine A is non-toxic to primary human PBMCs. Portimine A and its functional analogs show stereo-selective acute toxicity in cancer cells. […] (B) Structure of portimine related analogs: phenyl-portimine A (Ph-PA, 36) and epi-portimine A (ePA, 38). Structure of fully functionalized portimine A-based epimeric probe pair: portimine A-diazirine-alkyne (PA-DA, 35-2) and epi-portimine A-diazirine-alkyne (ePA-DA, 35-1). (C) Cell viability analysis of portimine A and analogs. […] All presented data as mean of biological replicated experiments (n=3). […]
Structurally related negative control ePA and PB are non-toxic in all cell types in the current concentrate range. PBMCs (25k per well), Jurkat (10k per well). […]
• 1) Portimine A and its functional analogs show stereo-selective acute toxicity in cancer cells (FIG. 1). […] (B) Structure of portimine related analogs: phenyl-portimine A (Ph-PA, 36) and epi-portimine A (ePA, 38). Structure of fully functionalized portimine A-based epimeric probe pair: portimine A-diazirine-alkyne (PA-DA, 35-2) and epi-portimine A-diazirine-alkyne (ePA-DA, 35-1). (C) Cell viability analysis of portimine A and analogs. […] All presented data as mean of biological replicated experiments (n=3). […] Structurally related negative control ePA and PB are non-toxic in all cell types in the current concentrate range. PBMCs (25k per well), Jurkat (10k per well). […] Cell cycle analysis in Jurkat cells (FIG. 2). […] (A) PA and Ph-PA show less toxic to healthy PBMCs compared to Jurkat cells. […] (B) Immunoblot of caspase-3 in Jurkat and PBMCs with indicated conditions. […] (A) Pharmacokinetic studies of mouse intraperitoneal (i.p.) and oral (p.o.) administration for portimine (n=3). […] Impact of PA [0.3 or 1 mg/kg intraperitoneally] on MC38 tumor growth in WT mice (n=6). (C) Kaplan-Myer survival curve of WT MC38 tumor-bearing mice (n=6) after treatment with PA as described in (D). Mice were euthanized when tumor area exceeded 2000 mm^3. Statistical analysis was performed using ANOVA analysis followed by multiple comparisons test, * p≤0.05. Treatment condition: Jurkat (60 M per condition); PA-DA/ePA-DA concentration: 0.5 uM, PA or ePA: 5 uM; Incubate with probe with or without competitors (PA, ePA) for 30 min; UV irradiated for 20 min. (0.5 uM PA-DA add a no-UV condition), Standard pulldown & biotin-enrichment and western blot analysis (Elute condition: 2× sample buffer+500 uM biotin, boil for 20 mins); Primary antibody NMD3 (ProteinTech, 1:150), Actin (BioRad, 1:10000). […] Chemical proteomic profiling with PA-DA in Jurkat cells (A, B, C, G) and HCC1806 cells (D, E, F, H) show NMD3 is the primary target candidate of portimine A. […] (I, J) Confirmation of PA-DA engagement of NMD3 in Jurkat and HCC1806 cells. […] Treatment condition: Jurkat (5M per well). Portimine A concentration: 2 nM-1000 nM; In total treat cell for 12 hours. […] Protein degradation of p53, Mcl1, Bid, Bim, Noxa can be rescued by MG132 or Epoxomicin. (B) NMD3 mRNA increased after PA treatment, but not ePA control compound. […] (A) Immunoblot showing reduced NMD3 levels in shNMD3 Jurkat and HeLa cells. […] Data represents mean±SD of biologically replicated experiments (n=3). […] Cell lysates were fractionated by sucrose gradient (5-50%) and each fraction were analyzed by western blot. eIF6 levels increase in 60S subunit fraction and decrease in ribosome-free fractions after PA treatment. RPS6, a 40S and polysome subunits marker, is decreased in polysome fractions after PA treatment. Results are representative of three independent experiments. […] Relative protein levels in each fraction were normalized to the peak fraction of the indicated protein from the DMSO cells and plotted. Data represents mean±SD of biologically replicated experiments (n=3). Statistical analysis was performed using multiple unpaired Student t-test. * p≤0.05; ** p≤0.01; *** p≤0.005; **** p≤0.0001. […]

Row | Compound | IC50 (Jurkat, 12 h) | cell toxicity in leukemia (Jurkat) cancer cell line | toxicity to Jurkat cells | IC50 (after 12 hr, Jurkat 10k per well, 0.23 pM to 1 uM)
1 | C=CC1=C[C@@H]2[C@@H]3O[C@]4(CC[C@H](O4)C(C)C[C@@H](O)C3=O)CC(O)C3=NCC[C@@]32CC1 (stereo partly drawn) [PA, portimine A] | ~2 nM | – | – | –
2 | C=CC1=C[C@@H]2[C@@H]3O[C@]4(CC[C@H](O4)C(C)C[C@@H](O)C3=O)C[C@@H](O)C3=NCC[C@@]32CC1 (stereo partly drawn) [ePA, epi-portimine A] | – | minimal effects | non-toxic; also recorded: non-toxicity | –
3 | C=CC1=C[C@@H]2[C@@H]3OC4(CC[C@H](O4)C(C)C[C@@H](O)C3=O)CC(=O)C3=NCC[C@@]32CC1 (stereo partly drawn) [PB, portimine B] | – | minimal effects | non-toxic; also recorded: non-toxicity | –
4 | CC1C[C@@H](O)C(=O)[C@H]2O[C@]3(CC[C@@H]1O3)CC(O)C1=NCC[C@@]13CCC(c1ccccc1)=C[C@H]23 (stereo partly drawn) [Ph-PA, phenyl-portimine A] | – | – | – | ~2 nM
